pIC50: −log10 of the molar value. The source made the active and inactive calls. The calls are words filed in the database; no cut-off is given here.
Legend:
Plasmodium falciparum [1] = experiment: Antimalarial activity against asexual blood stage wild-type Plasmodium falciparum 3D7 assessed as parasite growth inhibition incubated for 72 hrs by SYBR Green I staining based fluorescence analysis; format: functional, organism-based; details: 3D7, 72 h
[2] = Cytotoxicity against human HepG2 cells incubated for 72 hrs by CCK-8 assay
[3] = Metabolic stability in mouse liver microsomes assessed as intrinsic clearance at […] incubated for 45 mins in presence of NADPH by LC/MS analysis; format: ADME, Microsome; details: read-out: CLH
Plasmodium yoelii [4] = experiment: Antimalarial activity against blood stage Plasmodium yoelii infected in BALB/c mouse assessed as parasite recrudescence by measuring parasitemia at 60 mg/kg, ip qd for 5 days and measured on 12 to 18 days; format: functional; details: time 12-18 day
Plasmodium yoelii [5] = experiment: Antimalarial activity against blood stage Plasmodium yoelii infected in BALB/c mouse assessed as parasite recrudescence by measuring parasitemia at 30 mg/kg, ip qd for 5 days and measured for 8 to 16 days; format: functional; details: time 8-16 day
[6] = Toxicity in BALB/c mouse infected with liver stage transgenic Plasmodium berghei ANKA sporozoites transfected with GFP-Luc assessed as animal death at 30 mg/kg, iv measured on day 4 post-administration; format: organism-based; details: in vivo, 96 h, time 4 day
Plasmodium berghei = experiment: Antimalarial activity against liver stage transgenic Plasmodium berghei ANKA sporozoites transfected with GFP-Luc infected in BALB/c mouse assessed as delayed progression of infection at 30 mg/kg, iv measured for 1 to 4 days post-administration by IVIS spectrum in vivo imaging analysis; format: functional, organism-based; details: time 1-4 day
Plasmodium falciparum [7] = experiment: Antimalarial activity against late stage (IV) Plasmodium falciparum NF54 gametocytes transfected with p230p-Luc assessed as reduction in gametocyte viability incubated for 48 hrs by luciferase reporter gene based bioluminescence assay; format: functional, organism-based; details: NF54, 48 h
Plasmodium falciparum [8] = experiment: Antimalarial activity against blood stage asynchronous Plasmodium falcipuram 3D7 assessed as suppression of parasite reproduction by measuring parasitemia at 10 nM incubated for 24 hrs followed by compound washout and replacement with fresh medium without compounds and measured after 4 days by flow cytometry; format: functional
Plasmodium falciparum [9] = experiment: Antimalarial activity against synchronized Plasmodium falcipuram 3D7 infected in human RBC assessed as ring stage parasite killing at 40 nM treated […] and incubated for 12 hrs followed by compound washout and replacement with fresh medium without compounds and measured at 50 hrs post infection by Geimsa staining based microscopy; format: functional, organism-based
Plasmodium falciparum [10] = experiment: (§1) Antimalarial activity against synchronized Plasmodium falcipuram 3D7 infected in human RBC assessed as irreversible inhibition of parasite growth at ring stage at 40 nM treated at 5 to 17 hpi incubated for 12 hrs followed by compound washout and replacement with fresh medium without compounds and measured after 4 days by flow cytometry; format: functional, organism-based
Plasmodium falciparum [11] = experiment: as §1, with “schizont” for “ring”, “29” for “at 5”, “41” for “17”; format: functional, organism-based
Plasmodium falciparum [12] = experiment: Inhibition of Plasmodium falcipuram HDAC assessed as effect on parasite histone deacetylation level at 5 to 20 nM incubated for 4 hrs by Western blot analysis; details: dose 5-20 nM
[13] = In vivo inhibition of C-terminal glmS fused HDAC1 in Plasmodium falcipuram 3D7 assessed as inhibition of parasite growth incubated for 4 hrs followed by compound washout and replacement with fresh medium with compounds measured after 68 hrs by SYBR Green I staining based fluorescence analysis; format: functional, organism-based, Plasmodium falciparum
[14] = In vivo inhibition of C-terminal TY1 fused HDAC1 in Plasmodium falcipuram 3D7 assessed as inhibition of parasite growth incubated for 4 hrs followed by compound washout and replacement with fresh medium with compounds measured after 68 hrs by SYBR Green I staining based fluorescence analysis; format: functional, organism-based, Plasmodium falciparum
Plasmodium falciparum [15] = experiment: In vivo inhibition of C-terminal TY1 fused HDAC2 in Plasmodium falcipuram 3D7 assessed as inhibition of parasite growth incubated for 4 hrs followed by compound washout and replacement with fresh medium with compounds measured after 68 hrs by SYBR Green I staining based fluorescence analysis; format: functional, organism-based
Plasmodium falciparum [16] = experiment: In vivo inhibition of C-terminal glmS fused HDAC1 in Plasmodium falcipuram 3D7 assessed as inhibition of parasite growth by measuring downregulation of RBC invasion-related genes expression level by RNA-seq analysis; format: functional, organism-based
Histone deacetylase 3 [17] = target: T1, Histone deacetylase 3 (Homo sapiens, UniProt O15379); experiment: Inhibition of human C-terminal His tagged HDAC3 (1 to 428 residues) expressed in baculovirus-infected Sf9 cells using Ac-peptide as substrate incubated for 4 hrs
Histone deacetylase 8 = target: T2, Histone deacetylase 8 (Homo sapiens, UniProt Q9BY41); experiment: Inhibition of recombinant human full length C-terminal His-tagged HDAC8 expressed in baculovirus-infected Sf9 insect cells using Ac-peptide as substrate incubated for 4 hrs followed by trypsin addition and further incubated for 2 hrs
T2 sequence (Q9BY41 whole entry): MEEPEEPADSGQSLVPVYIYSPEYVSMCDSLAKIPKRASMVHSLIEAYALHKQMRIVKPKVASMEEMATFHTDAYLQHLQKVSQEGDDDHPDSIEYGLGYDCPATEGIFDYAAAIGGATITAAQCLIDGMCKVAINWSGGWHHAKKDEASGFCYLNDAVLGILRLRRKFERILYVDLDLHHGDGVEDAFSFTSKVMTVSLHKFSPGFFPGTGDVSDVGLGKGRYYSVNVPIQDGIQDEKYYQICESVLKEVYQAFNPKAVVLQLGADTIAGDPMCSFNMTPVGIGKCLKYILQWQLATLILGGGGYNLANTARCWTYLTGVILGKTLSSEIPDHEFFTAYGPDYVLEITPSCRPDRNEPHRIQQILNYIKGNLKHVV

[18] = Drug concentration in BALB/c mouse plasma at 5 mg/kg, ip measured upto 24 hrs by LC-MS/MS analysis; format: ADME, organism-based
[19] = Cmax in BALB/c mouse at 5 mg/kg, ip measured upto 24 hrs by LC-MS/MS analysis; format: ADME, organism-based; set-up: route intraperitoneal, dose 5 mg/kg, time <=24; details: in vivo
[20] = AUC (0 to infinity) in BALB/c mouse at 5 mg/kg, ip measured after upto 24 hrs by LC-MS/MS analysis; format: ADME, organism-based; set-up: route intraperitoneal, dose 5 mg/kg, time <=24; details: in vivo
[21] = Apparent clearance in BALB/c mouse at 5 mg/kg, ip measured after upto 24 hrs by LC-MS/MS analysis; format: ADME, organism-based; details: in vivo, read-out: CLz/F (converted)
[22] = Apparent volume of distribution in BALB/c mouse at 5 mg/kg, ip measured after upto 24 hrs by LC-MS/MS analysis; format: ADME, organism-based; details: in vivo, read-out: Vz/F
Histone deacetylase 1 = Histone deacetylase 1 (Homo sapiens, UniProt Q13547); experiment: Potency index, ratio of test compound IC50 to Quisinostat IC50 for inhibition of recombinant human full length C-terminal His/FLAG tagged HDAC1 (1 to 482 residues) expressed in baculovirus-infected Sf9 cells using Ac-peptide as substrate incubated for 4 hrs
[23] = Metabolic stability in human liver microsomes assessed as half life at […] incubated for 45 mins in presence of NADPH by LC/MS analysis; format: ADME, Microsome
[24] = Metabolic stability in rat liver microsomes assessed as half life at […] incubated for 45 mins in presence of NADPH by LC/MS analysis; format: ADME, Microsome
Histone deacetylase 3 [25] = target: T1, Histone deacetylase 3; experiment: Potency index, ratio of test compound IC50 to Quisinostat IC50 for inhibition of human C-terminal His tagged HDAC3 (1 to 428 residues) expressed in baculovirus-infected Sf9 cells using Ac-peptide as substrate incubated for 4 hrs
[26] = target: T3, Histone deacetylase 8 (Homo sapiens) (UniProt Q9BY41); experiment: Potency index, ratio of test compound IC50 to Quisinostat IC50 for inhibition of recombinant human full length C-terminal His-tagged HDAC8 expressed in baculovirus-infected Sf9 insect cells using Ac-peptide as substrate incubated for 4 hrs followed by trypsin addition and further incubated for 2 hrs
T3 sequence (whole entry): T2 sequence (Q9BY41 whole entry)

T1 sequence (O15379 whole entry, the tested form may be a part): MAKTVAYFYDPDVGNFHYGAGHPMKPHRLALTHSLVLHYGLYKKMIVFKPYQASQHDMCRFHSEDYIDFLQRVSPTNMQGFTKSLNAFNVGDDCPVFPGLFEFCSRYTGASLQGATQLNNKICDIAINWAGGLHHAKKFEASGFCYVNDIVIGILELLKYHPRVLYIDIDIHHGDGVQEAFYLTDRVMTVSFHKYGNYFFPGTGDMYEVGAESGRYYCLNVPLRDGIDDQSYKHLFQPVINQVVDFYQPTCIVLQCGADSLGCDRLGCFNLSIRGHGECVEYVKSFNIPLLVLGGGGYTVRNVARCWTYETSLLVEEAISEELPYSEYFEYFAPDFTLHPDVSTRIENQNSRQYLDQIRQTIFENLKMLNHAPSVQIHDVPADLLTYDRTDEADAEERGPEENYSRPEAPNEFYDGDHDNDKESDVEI
Sequence of Histone deacetylase 1 (Q13547 whole entry, the tested form may be a part): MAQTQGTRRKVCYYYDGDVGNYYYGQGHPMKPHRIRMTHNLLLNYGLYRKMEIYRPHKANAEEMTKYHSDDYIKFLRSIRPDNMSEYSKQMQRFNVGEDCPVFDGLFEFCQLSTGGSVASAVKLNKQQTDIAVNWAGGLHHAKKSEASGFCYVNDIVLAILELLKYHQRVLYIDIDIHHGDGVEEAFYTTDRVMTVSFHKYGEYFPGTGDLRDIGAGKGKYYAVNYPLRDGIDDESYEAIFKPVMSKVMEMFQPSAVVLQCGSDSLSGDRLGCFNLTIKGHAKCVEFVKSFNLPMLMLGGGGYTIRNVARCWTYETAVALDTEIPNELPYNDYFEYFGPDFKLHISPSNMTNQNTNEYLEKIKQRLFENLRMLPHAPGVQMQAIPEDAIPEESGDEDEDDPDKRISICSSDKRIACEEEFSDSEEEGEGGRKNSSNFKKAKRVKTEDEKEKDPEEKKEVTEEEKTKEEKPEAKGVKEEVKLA

`Cl.Cn1cc(CN2CC3(CCN(c4ncc(C(=O)NO)cn4)C3)C2)c2ccc(C#N)cc21` showed a pIC50 (Plasmodium falciparum [1]) of 8.90, an IC50 at 72 h [2] of 1.02 µM and a CLint scaled [3] of 4.08 L/h/kg. The Activity (Plasmodium yoelii [4]) was 0.11%, the Activity (Plasmodium yoelii [5]) was 0.02% and the Activity [6] was “Non-Toxic”. The Activity (Plasmodium berghei) was “Active”, the pIC50 (Plasmodium falciparum [7]) was 7.91 and the Activity (Plasmodium falciparum [8]) was 100%. The Activity (Plasmodium falciparum [9]) was “Active”, the Activity (Plasmodium falciparum [10]) was “Active” and the Activity (Plasmodium falciparum [11]) was “Active”. For the same molecule, the Activity (Plasmodium falciparum [12]) was “Active”, the pIC50 [13] was 7.77 and the pIC50 [14] was 7.08. For the same molecule, the inhibition (Plasmodium falciparum [15]) was “Active”, the inhibition (Plasmodium falciparum [16]) was “Active” and the pIC50 (Histone deacetylase 3 [17]) was 8.28. The pIC50 (Histone deacetylase 8) was 7.52, the concentration at 24 h [18] was 0.089 µg/mL and the Cmax [19] was 0.539 µg/mL. The AUC(0-inf) [20] was 0.64 µg·h/mL, the CL/F [21] was 7.81 L/h/kg and the Vd/F [22] was 10.2 L/kg. For the same molecule, the Ratio IC50 (Histone deacetylase 1) was 3, the half-life [23] was over 2 h and the half-life [24] was over 2 h. For the same molecule, the Ratio IC50 (Histone deacetylase 3 [25]) was 3 and the Ratio IC50 [26] was 3.

From ChEMBL document CHEMBL5046276 (J Med Chem, 2022)
